Assay results from ChEMBL document CHEMBL1131246, “Design, synthesis, and biological evaluation of a second generation of pyrazolo[4,3-e]-1,2,4-triazolo[1,5-c]pyrimidines as potent and selective A2A adenosine receptor antagonists” (J Med Chem, 1998).

How the values were obtained:
Adenosine receptor A2a [1] = molecular target: Adenosine receptor A2a (Rattus norvegicus, UniProt P30543)
Adenosine receptor A2a [2] = molecular target: T1, Adenosine receptor A2a (Homo sapiens, UniProt P29274); assay: Inhibition of 1 uM NECA-stimulated cyclic AMP levels in human platelets; assay type: functional
T1 sequence (P29274 whole entry): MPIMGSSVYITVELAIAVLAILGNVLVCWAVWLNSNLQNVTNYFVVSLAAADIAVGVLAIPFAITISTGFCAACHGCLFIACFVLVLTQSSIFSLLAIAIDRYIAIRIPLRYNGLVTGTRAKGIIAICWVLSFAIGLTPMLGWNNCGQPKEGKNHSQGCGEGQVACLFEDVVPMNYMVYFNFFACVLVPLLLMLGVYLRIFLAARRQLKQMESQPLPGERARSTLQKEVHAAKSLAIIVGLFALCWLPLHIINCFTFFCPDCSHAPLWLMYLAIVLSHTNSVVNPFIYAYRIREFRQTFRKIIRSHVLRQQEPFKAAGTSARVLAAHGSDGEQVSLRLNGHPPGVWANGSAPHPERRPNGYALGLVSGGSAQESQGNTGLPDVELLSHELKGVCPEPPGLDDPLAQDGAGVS

Adenosine receptor A3 [3] = molecular target: T2, Adenosine receptor A3 (Homo sapiens, UniProt P0DMS8); assay: biochemical
T2 sequence (P0DMS8 whole entry): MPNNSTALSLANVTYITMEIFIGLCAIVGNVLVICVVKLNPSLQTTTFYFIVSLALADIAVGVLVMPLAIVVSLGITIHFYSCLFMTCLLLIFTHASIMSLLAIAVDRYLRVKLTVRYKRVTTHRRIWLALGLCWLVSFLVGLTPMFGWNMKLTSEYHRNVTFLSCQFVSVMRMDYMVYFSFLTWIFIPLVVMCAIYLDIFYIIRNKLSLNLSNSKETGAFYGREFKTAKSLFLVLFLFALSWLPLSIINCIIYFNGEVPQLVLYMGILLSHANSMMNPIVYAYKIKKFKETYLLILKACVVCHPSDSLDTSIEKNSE
Description: (§1) Displacement of [125I]AB-MECA from human Adenosine A3 receptor expressed in HEK293 cells

Adenosine receptor A1 [4] = molecular target: T3, Adenosine receptor A1 (Rattus norvegicus, UniProt P25099)
T3 sequence (P25099 whole entry): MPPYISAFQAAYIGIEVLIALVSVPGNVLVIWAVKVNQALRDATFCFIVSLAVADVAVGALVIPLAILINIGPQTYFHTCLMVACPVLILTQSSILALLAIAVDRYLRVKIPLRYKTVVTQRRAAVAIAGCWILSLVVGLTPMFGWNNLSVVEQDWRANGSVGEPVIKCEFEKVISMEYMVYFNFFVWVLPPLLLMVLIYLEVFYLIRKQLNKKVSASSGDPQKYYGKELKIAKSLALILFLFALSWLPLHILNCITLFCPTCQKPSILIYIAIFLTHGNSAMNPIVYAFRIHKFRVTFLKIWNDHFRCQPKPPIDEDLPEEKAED
Description: Displacement of [3H]CHA from rat cortical membrane Adenosine A1 receptor. Parenthesis indicate 95% confidence limit.

[5] = Selectivity for human A3 adenosine receptor and rat A2A adenosine receptor
Adenosine receptor A3 [6] = molecular target: T2, Adenosine receptor A3; assay: biochemical; remark: listed apart in the source
Description: as §1

Adenosine receptor A2a [7] = molecular target: T1, Adenosine receptor A2a; assay: Displacement of [3H]-SCH- 58261 from human Adenosine A2A receptor expressed in CHO cells; assay type: cell-based
Adenosine receptor A1 [8] = molecular target: T4, Adenosine receptor A1 (Homo sapiens, UniProt P30542); assay: Displacement of [3H]CHA from human Adenosine A1 receptor expressed in CHO cells; assay type: cell-based
T4 sequence (P30542 whole entry): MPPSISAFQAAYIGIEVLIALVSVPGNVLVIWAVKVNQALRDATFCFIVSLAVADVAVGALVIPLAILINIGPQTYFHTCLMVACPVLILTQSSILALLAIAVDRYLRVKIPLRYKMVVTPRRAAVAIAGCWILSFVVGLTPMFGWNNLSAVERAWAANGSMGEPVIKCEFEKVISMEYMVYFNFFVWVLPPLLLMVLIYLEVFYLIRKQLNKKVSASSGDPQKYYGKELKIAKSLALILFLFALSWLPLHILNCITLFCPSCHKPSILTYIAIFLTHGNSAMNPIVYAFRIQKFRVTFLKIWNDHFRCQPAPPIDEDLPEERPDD

Sequence of Adenosine receptor A2a (Rattus norvegicus, UniProt P30543) (P30543 whole entry): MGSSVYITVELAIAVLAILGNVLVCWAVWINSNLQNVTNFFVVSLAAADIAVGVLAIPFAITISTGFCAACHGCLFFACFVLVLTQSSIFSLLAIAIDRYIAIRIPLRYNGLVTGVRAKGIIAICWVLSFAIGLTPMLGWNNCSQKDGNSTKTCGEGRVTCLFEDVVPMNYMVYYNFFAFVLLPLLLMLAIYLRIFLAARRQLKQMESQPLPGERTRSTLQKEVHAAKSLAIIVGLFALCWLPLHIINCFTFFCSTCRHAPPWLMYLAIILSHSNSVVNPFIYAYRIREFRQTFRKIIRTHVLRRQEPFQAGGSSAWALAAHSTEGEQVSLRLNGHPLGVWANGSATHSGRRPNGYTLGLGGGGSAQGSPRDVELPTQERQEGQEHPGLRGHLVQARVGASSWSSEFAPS

Structure (SMILES)	Ki (Adenosine receptor A2a [1])	IC50 (Adenosine receptor A2a [2])	Ki (Adenosine receptor A3 [3])	Ki (Adenosine receptor A1 [4])	Selectivity [5]	Ki (Adenosine receptor A3 [6])	Ki (Adenosine receptor A2a [7])	Ki (Adenosine receptor A1 [8])
Nc1nc2c(cnn2CCCc2ccc(O)c(O)c2)c2nc(-c3ccco3)nn12	49 nM	60 nM	> 10000 nM	2250 nM	> 204	–	–	–
Nc1nc2c(cnn2CCc2ccc(OCc3ccccc3)cc2)c2nc(-c3ccco3)nn12	59 nM	90 nM	> 10000 nM	> 10000 nM	> 169	–	–	–
COc1ccc(CCCn2ncc3c2nc(N)n2nc(-c4ccco4)nc32)cc1OC	5.3 nM	20 nM	> 10000 nM	2830 nM	> 1890	> 10000 nM	2.7 nM	1650 nM
Nc1nc2c(cnn2CCCc2ccccc2)c2nc(-c3ccco3)nn12 [SCH-63390]	–	–	> 10000 nM	–	–	–	–	–
Nc1nc2c(cnn2CCc2ccccc2)c2nc(-c3ccco3)nn12 [SCH-58261]	–	–	> 10000 nM	–	–	–	–	–
Nc1nc2c(cnn2CCCc2ccc(O)cc2)c2nc(-c3ccco3)nn12	0.94 nM	10 nM	> 10000 nM	741 nM	> 10600	> 10000 nM	1.5 nM	253 nM
Nc1nc2ccc(Cl)cc2c2nc(-c3ccco3)nn12 [CGS-15943]	0.95 nM	–	14 nM	–	–	–	–	–
Nc1nc2c(cnn2CCCc2ccc3c(c2)OCO3)c2nc(-c3ccco3)nn12	3.8 nM	8 nM	> 10000 nM	1840 nM	> 2630	> 10000 nM	3.3 nM	2170 nM
Nc1nc2c(cnn2Cc2ccc(OCc3ccccc3)cc2)c2nc(-c3ccco3)nn12	246 nM	500 nM	> 10000 nM	9450 nM	> 40	–	–	–
Nc1nc2c(cnn2Cc2ccc(O)cc2)c2nc(-c3ccco3)nn12	53 nM	149 nM	> 10000 nM	13400 nM	> 188	–	–	–
Nc1nc2c(cnn2CCCc2ccc(OCc3ccccc3)cc2)c2nc(-c3ccco3)nn12	45 nM	300 nM	> 10000 nM	1460 nM	> 222	–	–	–
Nc1nc2c(cnn2CCc2ccc(O)cc2)c2nc(-c3ccco3)nn12	1.7 nM	14 nM	> 10000 nM	444 nM	> 5880	–	–	–
